Key:
[1] = target: T1, Type-2 angiotensin II receptor (Homo sapiens, UniProt P50052); assay type: cell-based; conditions: cho-k1; also: in other assays of this panel Not Active means under 50% inhibition at 10 µM
T1 sequence (P50052 whole entry): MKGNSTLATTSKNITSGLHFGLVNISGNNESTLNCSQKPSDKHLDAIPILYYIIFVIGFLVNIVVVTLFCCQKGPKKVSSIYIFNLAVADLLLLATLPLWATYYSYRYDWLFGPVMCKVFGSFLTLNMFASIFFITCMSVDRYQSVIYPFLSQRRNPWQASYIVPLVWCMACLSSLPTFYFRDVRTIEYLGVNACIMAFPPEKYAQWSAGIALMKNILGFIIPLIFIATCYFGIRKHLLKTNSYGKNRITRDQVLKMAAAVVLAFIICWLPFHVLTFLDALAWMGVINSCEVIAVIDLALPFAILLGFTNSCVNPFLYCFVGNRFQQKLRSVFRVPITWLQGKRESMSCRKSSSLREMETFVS

[2] = target: Carbonic anhydrase 2 (Homo sapiens, UniProt P00918); assay: DRUGMATRIX: Carbonic Anhydrase II enzyme inhibition (substrate: 4-Nitrophenyl acetate (4-NPA)); assay type: tissue-based, Erythrocyte; conditions: erythrocyte; Not Active = under 50% inhibition at 10 µM
[3] = target: Delta-type opioid receptor (Homo sapiens, UniProt P41143); assay type: cell membranes, HEK293, Membrane; conditions: hek293; also: in other assays of this panel Not Active means under 50% inhibition at 10 µM
[4] = target: T2, Amine oxidase [flavin-containing] A (Homo sapiens, UniProt P21397); assay: DRUGMATRIX: Monoamine Oxidase MAO-A enzyme inhibition (substrate: Kynuramine); design: species or system BTI-TN-5B1-4; conditions: bti-tn-5b1-4; Not Active = under 50% inhibition at 10 µM
T2 sequence (P21397 whole entry): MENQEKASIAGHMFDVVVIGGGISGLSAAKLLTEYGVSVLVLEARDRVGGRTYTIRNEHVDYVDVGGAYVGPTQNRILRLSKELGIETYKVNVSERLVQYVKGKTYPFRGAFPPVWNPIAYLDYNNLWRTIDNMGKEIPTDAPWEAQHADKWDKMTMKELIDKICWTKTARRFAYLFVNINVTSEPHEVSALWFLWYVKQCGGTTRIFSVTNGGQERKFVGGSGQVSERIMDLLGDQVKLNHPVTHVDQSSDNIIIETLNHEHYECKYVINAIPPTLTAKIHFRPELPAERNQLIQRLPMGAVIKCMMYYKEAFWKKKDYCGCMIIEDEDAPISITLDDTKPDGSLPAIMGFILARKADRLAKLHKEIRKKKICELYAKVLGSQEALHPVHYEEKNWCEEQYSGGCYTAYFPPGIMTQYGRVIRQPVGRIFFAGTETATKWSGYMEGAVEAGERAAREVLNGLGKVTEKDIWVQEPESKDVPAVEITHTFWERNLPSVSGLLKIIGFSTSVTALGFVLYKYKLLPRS

[5] = target: Epidermal growth factor receptor (Homo sapiens, UniProt P00533); assay: DRUGMATRIX: Protein Tyrosine Kinase, EGF Receptor enzyme inhibition (substrate: Poly(Glu:Tyr)); assay type: cell-based, Insect cells; conditions: insect cells; Not Active = under 50% inhibition at 10 µM
[6] = target: Melanocortin receptor 5 (Homo sapiens, UniProt P33032); assay type: cell membranes, HEK293, Membrane; conditions: hek293; also: in other assays of this panel Not Active means under 50% inhibition at 10 µM
[7] = target: Cytochrome P450 2C9 (Homo sapiens, UniProt P11712); conditions: bti-tn-5b1-4; also: in other assays of this panel Not Active means under 50% inhibition at 10 µM
[8] = target: Protein kinase C alpha type (Homo sapiens, UniProt P17252); assay type: cell-based; conditions: sf9
[9] = target: Sodium-dependent noradrenaline transporter (Homo sapiens, UniProt P23975); assay: DRUGMATRIX: Norepinephrine Transporter radioligand binding (ligand: [125I] RTI-55); assay type: cell membranes, MDCK, Membrane; conditions: mdck; Not Active = under 50% inhibition at 10 µM
[10] = target: Kappa-type opioid receptor (Homo sapiens, UniProt P41145); assay: DRUGMATRIX: Opiate kappa (OP2, KOP) radioligand binding (ligand: [3H] Diprenorphine); assay type: cell membranes, HEK293, Membrane; conditions: hek293; Not Active = under 50% inhibition at 10 µM
[11] = target: T3, Thromboxane-A synthase (Homo sapiens, UniProt P24557); assay: biochemical; assay type: tissue-based, Platelet; conditions: platelet
T3 sequence (P24557 whole entry): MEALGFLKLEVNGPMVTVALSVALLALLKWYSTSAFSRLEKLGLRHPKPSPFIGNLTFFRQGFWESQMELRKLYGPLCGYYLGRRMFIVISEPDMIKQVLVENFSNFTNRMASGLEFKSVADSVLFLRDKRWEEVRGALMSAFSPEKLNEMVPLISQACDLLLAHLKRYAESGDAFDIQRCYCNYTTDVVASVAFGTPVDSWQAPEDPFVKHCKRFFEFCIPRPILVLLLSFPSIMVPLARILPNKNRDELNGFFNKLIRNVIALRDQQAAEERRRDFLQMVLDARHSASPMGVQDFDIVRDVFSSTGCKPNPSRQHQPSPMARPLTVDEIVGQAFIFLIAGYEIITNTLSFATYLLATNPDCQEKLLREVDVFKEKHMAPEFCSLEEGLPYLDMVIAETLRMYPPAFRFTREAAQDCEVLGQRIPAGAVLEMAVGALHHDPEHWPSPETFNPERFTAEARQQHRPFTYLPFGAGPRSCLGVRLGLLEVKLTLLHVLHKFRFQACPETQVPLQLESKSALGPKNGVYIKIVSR

[12] = target: Prostaglandin G/H synthase 1 (Homo sapiens, UniProt P23219); assay: biochemical; assay type: tissue-based, Platelet; conditions: platelet
[13] = DRUGMATRIX: Phosphodiesterase PDE3 enzyme inhibition (substrate: [3H]cAMP + cAMP); assay type: tissue-based, Homo sapiens; conditions: platelet; Not Active = under 50% inhibition at 10 µM
[14] = target: Cannabinoid receptor 1 (Homo sapiens, UniProt P21554); assay type: cell membranes, Membrane; conditions: chem-1; also: in other assays of this panel Not Active means under 50% inhibition at 10 µM
[15] = target: C-C chemokine receptor type 5 (Homo sapiens, UniProt P51681); assay type: cell membranes, Membrane; conditions: hek293; also: in other assays of this panel Not Active means under 50% inhibition at 10 µM
[16] = target: T4, B2 bradykinin receptor (Homo sapiens, UniProt P30411); assay type: cell membranes, Membrane; conditions: chem-1; also: in other assays of this panel Not Active means under 50% inhibition at 10 µM
T4 sequence (P30411 whole entry): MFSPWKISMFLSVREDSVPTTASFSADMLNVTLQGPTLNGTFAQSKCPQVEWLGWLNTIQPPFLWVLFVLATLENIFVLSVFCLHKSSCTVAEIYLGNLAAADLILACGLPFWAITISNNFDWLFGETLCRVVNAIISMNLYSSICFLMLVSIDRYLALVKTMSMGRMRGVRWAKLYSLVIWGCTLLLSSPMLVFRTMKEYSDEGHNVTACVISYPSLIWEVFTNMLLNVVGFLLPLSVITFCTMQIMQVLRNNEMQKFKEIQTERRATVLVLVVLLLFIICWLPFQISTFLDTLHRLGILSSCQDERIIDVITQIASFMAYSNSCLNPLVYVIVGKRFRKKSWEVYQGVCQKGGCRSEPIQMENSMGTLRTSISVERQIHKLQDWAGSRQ

Cannabinoid receptor 1, sequence (P21554 whole entry): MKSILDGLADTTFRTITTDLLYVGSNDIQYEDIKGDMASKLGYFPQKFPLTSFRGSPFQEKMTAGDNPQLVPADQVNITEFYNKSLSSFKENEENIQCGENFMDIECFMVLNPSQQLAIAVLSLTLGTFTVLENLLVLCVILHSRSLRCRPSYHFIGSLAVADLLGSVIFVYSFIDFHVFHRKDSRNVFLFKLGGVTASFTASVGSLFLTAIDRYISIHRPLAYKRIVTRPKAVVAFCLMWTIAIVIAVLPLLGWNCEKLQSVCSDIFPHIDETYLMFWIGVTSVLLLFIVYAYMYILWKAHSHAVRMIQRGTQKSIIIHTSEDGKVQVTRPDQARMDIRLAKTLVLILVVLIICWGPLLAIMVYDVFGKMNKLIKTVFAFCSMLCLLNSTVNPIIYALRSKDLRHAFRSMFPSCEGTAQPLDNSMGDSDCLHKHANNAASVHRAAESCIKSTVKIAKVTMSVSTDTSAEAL
Cytochrome P450 2C9, sequence (P11712 whole entry): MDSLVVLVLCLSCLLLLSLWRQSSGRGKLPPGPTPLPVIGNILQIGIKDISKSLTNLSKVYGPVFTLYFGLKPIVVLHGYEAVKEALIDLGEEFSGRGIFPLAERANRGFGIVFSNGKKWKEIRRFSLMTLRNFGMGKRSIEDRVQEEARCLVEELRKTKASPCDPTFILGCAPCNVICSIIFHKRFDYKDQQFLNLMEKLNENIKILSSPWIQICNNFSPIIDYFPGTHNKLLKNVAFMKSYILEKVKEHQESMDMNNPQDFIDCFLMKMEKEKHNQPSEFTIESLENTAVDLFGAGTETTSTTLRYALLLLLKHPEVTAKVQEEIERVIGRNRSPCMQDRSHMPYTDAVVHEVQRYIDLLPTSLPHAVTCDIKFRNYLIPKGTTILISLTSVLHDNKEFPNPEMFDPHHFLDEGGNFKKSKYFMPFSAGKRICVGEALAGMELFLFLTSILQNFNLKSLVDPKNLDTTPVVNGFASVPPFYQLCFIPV
C-C chemokine receptor type 5, sequence (P51681 whole entry): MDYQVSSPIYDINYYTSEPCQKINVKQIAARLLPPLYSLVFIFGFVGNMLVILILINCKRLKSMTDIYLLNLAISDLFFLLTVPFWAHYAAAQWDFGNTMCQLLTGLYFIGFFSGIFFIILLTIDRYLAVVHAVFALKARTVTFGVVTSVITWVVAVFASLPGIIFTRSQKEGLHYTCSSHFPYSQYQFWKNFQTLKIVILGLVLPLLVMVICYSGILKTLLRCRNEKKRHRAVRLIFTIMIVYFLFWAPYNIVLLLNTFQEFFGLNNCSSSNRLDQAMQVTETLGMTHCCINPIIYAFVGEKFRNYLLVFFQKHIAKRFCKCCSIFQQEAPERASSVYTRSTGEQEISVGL
Sodium-dependent noradrenaline transporter, sequence (P23975 whole entry): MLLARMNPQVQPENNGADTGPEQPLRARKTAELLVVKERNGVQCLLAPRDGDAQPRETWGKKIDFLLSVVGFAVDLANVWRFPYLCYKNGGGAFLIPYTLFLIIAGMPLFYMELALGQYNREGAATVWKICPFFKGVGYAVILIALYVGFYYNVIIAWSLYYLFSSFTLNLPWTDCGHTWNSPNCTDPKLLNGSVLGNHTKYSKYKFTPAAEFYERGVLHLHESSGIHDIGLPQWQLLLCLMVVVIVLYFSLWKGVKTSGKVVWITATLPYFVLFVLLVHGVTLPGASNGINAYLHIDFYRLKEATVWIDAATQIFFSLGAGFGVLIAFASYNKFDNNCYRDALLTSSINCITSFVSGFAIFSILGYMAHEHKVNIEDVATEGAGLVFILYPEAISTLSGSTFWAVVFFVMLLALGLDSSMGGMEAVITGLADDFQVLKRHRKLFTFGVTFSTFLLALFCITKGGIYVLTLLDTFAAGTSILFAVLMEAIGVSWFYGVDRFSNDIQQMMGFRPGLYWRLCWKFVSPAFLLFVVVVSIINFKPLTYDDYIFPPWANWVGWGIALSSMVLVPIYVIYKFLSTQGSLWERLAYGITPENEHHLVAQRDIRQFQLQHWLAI
Delta-type opioid receptor, sequence (P41143 whole entry): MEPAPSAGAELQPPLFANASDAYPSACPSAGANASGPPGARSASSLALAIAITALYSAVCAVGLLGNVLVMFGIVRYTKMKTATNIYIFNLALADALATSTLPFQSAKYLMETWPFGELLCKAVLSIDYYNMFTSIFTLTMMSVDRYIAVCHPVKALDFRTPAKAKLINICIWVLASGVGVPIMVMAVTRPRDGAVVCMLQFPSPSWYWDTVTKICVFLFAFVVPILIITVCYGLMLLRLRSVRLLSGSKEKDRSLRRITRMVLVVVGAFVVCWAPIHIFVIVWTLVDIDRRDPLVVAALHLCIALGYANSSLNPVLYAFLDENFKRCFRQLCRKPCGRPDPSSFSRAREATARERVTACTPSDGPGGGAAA
Melanocortin receptor 5, sequence (P33032 whole entry): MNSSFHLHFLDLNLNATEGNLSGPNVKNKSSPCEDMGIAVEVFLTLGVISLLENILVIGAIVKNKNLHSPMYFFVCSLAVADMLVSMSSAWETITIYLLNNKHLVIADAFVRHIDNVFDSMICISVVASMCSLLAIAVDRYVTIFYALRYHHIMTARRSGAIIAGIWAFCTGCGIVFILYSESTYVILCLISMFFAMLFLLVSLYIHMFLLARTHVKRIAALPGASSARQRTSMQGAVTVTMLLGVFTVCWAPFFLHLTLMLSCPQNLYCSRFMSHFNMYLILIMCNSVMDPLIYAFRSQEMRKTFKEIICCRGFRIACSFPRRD
Epidermal growth factor receptor, sequence (P00533 whole entry): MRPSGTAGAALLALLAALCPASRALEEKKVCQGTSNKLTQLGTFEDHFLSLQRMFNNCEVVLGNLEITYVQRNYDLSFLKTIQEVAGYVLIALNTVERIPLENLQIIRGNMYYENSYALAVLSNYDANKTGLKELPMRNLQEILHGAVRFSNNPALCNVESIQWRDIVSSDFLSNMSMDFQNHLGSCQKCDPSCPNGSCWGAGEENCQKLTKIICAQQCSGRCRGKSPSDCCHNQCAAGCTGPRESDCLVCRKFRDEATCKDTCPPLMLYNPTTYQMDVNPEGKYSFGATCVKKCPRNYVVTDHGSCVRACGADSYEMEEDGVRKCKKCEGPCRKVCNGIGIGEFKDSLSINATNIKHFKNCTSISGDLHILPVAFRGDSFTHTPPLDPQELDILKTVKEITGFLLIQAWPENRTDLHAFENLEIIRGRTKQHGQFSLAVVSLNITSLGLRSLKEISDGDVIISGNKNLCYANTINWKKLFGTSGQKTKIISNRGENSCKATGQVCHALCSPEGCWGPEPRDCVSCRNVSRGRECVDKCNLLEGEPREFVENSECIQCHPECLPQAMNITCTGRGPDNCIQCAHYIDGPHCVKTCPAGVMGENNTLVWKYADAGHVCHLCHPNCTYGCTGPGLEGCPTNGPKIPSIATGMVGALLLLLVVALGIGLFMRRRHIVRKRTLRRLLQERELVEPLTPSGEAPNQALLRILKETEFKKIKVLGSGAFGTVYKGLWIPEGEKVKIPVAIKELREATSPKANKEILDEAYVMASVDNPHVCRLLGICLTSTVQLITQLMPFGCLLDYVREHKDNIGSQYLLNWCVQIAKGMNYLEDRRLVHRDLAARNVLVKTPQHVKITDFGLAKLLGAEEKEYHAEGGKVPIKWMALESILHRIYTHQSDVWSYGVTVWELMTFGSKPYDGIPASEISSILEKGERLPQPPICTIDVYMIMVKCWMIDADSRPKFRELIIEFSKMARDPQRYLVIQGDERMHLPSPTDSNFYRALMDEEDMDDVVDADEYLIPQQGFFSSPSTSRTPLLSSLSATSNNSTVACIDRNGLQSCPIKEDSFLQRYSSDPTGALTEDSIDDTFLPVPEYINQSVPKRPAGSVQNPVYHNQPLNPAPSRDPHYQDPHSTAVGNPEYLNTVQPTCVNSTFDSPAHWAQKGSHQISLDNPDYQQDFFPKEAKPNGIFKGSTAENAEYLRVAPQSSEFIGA
Kappa-type opioid receptor, sequence (P41145 whole entry): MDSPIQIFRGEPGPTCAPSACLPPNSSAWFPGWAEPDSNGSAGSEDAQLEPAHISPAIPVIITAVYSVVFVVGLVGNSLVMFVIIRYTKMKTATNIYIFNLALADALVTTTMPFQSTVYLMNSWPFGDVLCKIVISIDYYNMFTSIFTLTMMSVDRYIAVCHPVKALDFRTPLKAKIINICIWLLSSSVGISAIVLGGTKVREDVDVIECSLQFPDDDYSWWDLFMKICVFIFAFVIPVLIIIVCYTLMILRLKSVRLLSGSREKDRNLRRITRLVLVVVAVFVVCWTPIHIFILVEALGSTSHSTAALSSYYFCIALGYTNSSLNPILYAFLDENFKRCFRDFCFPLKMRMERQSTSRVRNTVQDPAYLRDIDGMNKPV

O=C1CN=C(c2ccccc2)c2cc([N+](=O)[O-])ccc2N1 [NITRAZEPAM]
Not Active: IC50 [1] | IC50 [2] | IC50 [3] | IC50 [4] | IC50 [5] | IC50 [6] | IC50 [7] | Ki [7] | IC50 [8] | IC50 [9] | IC50 [10] | IC50 [11] | IC50 [12] | IC50 [13] | Ki [13] | IC50 [14] | IC50 [15] | IC50 [16]

CC(=O)CCCCn1c(=O)c2c(ncn2C)n(C)c1=O [PENTOXIFYLLINE]
Not Active: IC50 [1] | IC50 [2] | IC50 [3] | IC50 [4] | IC50 [5] | IC50 [6] | IC50 [7] | Ki [7] | IC50 [8] | IC50 [9] | IC50 [10] | IC50 [11] | IC50 [12] | IC50 [13] | Ki [13] | IC50 [14] | IC50 [15] | IC50 [16]

C=C1C(=O)O[C@@H]2C3O[C@]3(C)CC/C=C(\C)CC[C@@H]12 (stereo not given in full)
Not Active: IC50 [1] | IC50 [2] | IC50 [3] | IC50 [4] | IC50 [5] | IC50 [6] | IC50 [7] | Ki [7] | IC50 [8] | IC50 [9] | IC50 [10] | IC50 [11] | IC50 [12] | IC50 [13] | Ki [13] | IC50 [14] | IC50 [15] | IC50 [16]

Cc1ccccc1N1CCN(CCc2nnc3n2CCCC3)CC1 [DAPIPRAZOLE]
Not Active: IC50 [1] | IC50 [2] | IC50 [3] | IC50 [4] | IC50 [5] | IC50 [6] | IC50 [7] | Ki [7] | IC50 [8] | IC50 [9] | IC50 [10] | IC50 [11] | IC50 [12] | IC50 [13] | Ki [13] | IC50 [14] | IC50 [15] | IC50 [16]

CC[C@@]1(O)C(=O)OCc2c1cc1n(c2=O)Cc2cc3ccccc3nc2-1 [CAMPTOTHECIN]
Not Active: IC50 [1] | IC50 [2] | IC50 [3] | IC50 [4] | IC50 [5] | IC50 [6] | IC50 [7] | Ki [7] | IC50 [8] | IC50 [9] | IC50 [10] | IC50 [11] | IC50 [12] | IC50 [13] | Ki [13] | IC50 [14] | IC50 [15] | IC50 [16]

Reference: ChEMBL document CHEMBL1909046, “DrugMatrix in vitro pharmacology data”
